Results on 1 molecule are retold here after US20220152067A1, “Cancer Immunotherapy Adjuvant” (lndustry-Academic Cooperation Foundation, Yonsei University, priority 2019, published 2022).

Holding throughout (assay type): in vivo, C57BL/6 male mice
Series [1] is described as follows: Spleen size and weight of mice after MC38 injection and drug administration. Particulars: MC38 model, 7 days; not statistically significant by one-way ANOVA. The procedure: (§1) MC-38 colorectal cancer cells (5×10^5 cells) were injected subcutaneously into 7-week-old C57BL/6 male mice. Seven days after the colorectal cancer cells were injected, the average tumor volume of the subcutaneous MC-38 tumor was about 40 mm^3. The injection method of the mouse tumor as described above was equally applied to all four groups below. Afterwards, the experimental group was divided into the vehicle administration control group, SAC-1004 and anti-PD1 co-administration group, SAC-1004 single administration group, and anti-PD1 single administration group, and the experiment was performed.
(§2) Specifically, the administration was performed as follows. SAC-1004, a vascular leak inhibitor, was dissolved in DMSO in PBS, and 1 mg per kg of mouse body weight was administered daily by intravenous injection. Anti-PD1, an immune checkpoint inhibitor, was administered at the concentration of 200 ng/mouse by intraperitoneal injection 3 times a week along with 200 ng of rat igG2a. […]
In a total of 4 groups consisting of control group, SAC-1004 and anti-PD1 co-administration group, SAC-1004 single administration group, and anti-PD1 single administration group, the spleen size of mice treated with the drug for 7 days as described above in the experimental animal model was analyzed.

Series [2] has as its system MC38 colorectal cancer cell line. Briefly: Tumor weight of mice after MC38 injection and drug administration. Particulars: MC38 model, 7 days; statistically proved by one-way ANOVA. The procedure:
as §1, §2
In a total of 4 groups consisting of control group, SAC-1004 and anti-PD1 co-administration group, SAC-1004 single administration group, and anti-PD1 single administration group, the tumor weight of mice treated with the drug for 7 days as described above in the experimental animal model was analyzed.

The test system is the same in series [3]. Kind of series: Tumor size change in mice after MC38 colorectal cancer cell line injection and drug administration. Particulars: subcutaneous MC-38 tumor, drug administration for 7 days; statistically proved by two-way ANOVA. The procedure: as §1, §2
In a total of 4 groups consisting of control group, SAC-1004 and anti-PD1 co-administration group, SAC-1004 single administration group, and anti-PD1 single administration group, the tumor size changes according to the drug administration for 7 days as described above in the experimental animal model were analyzed.

The test system of series [4] is VE-cadherin. Briefly: Adherent junction expression in mouse tumor (IHC staining). Particulars: drug administered for 14 days. On the procedure: as §1
Specifically, the administration was performed as follows. SAC-1004, a vascular leak inhibitor, was dissolved in DMSO in PBS, and 1 mg per kg of mouse body weight was administered daily by intravenous injection. […]
In a total of 4 groups consisting of control group, SAC-1004 and anti-PD1 co-administration group, SAC-1004 single administration group, and anti-PD1 single administration group, the expression of adherent junction in the tumor of the mouse treated with the drug as described above in the experimental animal model was analyzed except that the drug was administered for 14 days by daily administration of SAC-1004 for 7 days and administration of anti-PD1 3 times a week. […]

For the molecule `COC(=O)CCC/C=C(\C)[C@H]1CCC2C3CC=C4C[C@@H](OC5C=C[C@H](OC(C)=O)[C@@H](COC(C)=O)O5)CC[C@]4(C)C3CC[C@@]21C` (stereo partly shown) [SAC-1004], the spleen weight entry in series [1] is listed as “higher than that of the control group mice”. Moreover, the tumor weight result in series [2] is reported as “lower than that of the anti-PD1 single administration group mice”. In series [3], the tumor size result is listed as “reduced compared to that in the control group”. Moreover, the “ratio of intratumoral VE-cadherin” value in series [4] is reported as “increased”.
